Where “and” joins values, the source holds several entries; their conditions need not be identical. Equal values may be shown once.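 48-hour exposure; five concentrations; linearly interpolated endpoints. GI50 marks 50% less growth. The concentration for full growth arrest is given as TGI.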
Assays:
Test in all cases: inhibition of tumour cell growth, NCI panel, 48 h
786-0 renal = test system: 786-0 renal
A498 renal = test system: A498 renal
ACHN renal = test system: ACHN renal
BT-549 breast = test system: BT-549 breast
CAKI-1 renal = test system: CAKI-1 renal
DU-145 prostate = test system: DU-145 prostate
EKVX NSCLC = test system: EKVX NSCLC
HCT-116 colon = test system: HCT-116 colon
HL-60(TB) leukemia = test system: HL-60(TB) leukemia
HOP-92 NSCLC = test system: HOP-92 NSCLC
HT29 colon = test system: HT29 colon
MALME-3M melanoma = test system: MALME-3M melanoma
MDA-MB-231 breast = test system: MDA-MB-231 breast
MDA-N = test system: MDA-N
MOLT-4 leukemia = test system: MOLT-4 leukemia
NCI-H226 lung = test system: NCI-H226 lung
NCI-H23 lung = test system: NCI-H23 lung
NCI/ADR-RES ovarian = test system: NCI/ADR-RES ovarian
OVCAR-4 ovarian = test system: OVCAR-4 ovarian
OVCAR-5 ovarian = test system: OVCAR-5 ovarian
PC-3 prostate = test system: PC-3 prostate
SF-268 CNS = test system: SF-268 CNS
SF-295 CNS = test system: SF-295 CNS
SF-539 CNS = test system: SF-539 CNS
SK-MEL-5 melanoma = test system: SK-MEL-5 melanoma
SK-OV-3 ovarian = test system: SK-OV-3 ovarian
TK-10 renal = test system: TK-10 renal
U251 CNS = test system: U251 CNS
UACC-62 melanoma = test system: UACC-62 melanoma
A549 NSCLC = test system: A549 NSCLC
CCRF-CEM leukemia = test system: CCRF-CEM leukemia
COLO 205 colon = test system: COLO 205 colon
HCC-2998 colon = test system: HCC-2998 colon
HCT-15 colon = test system: HCT-15 colon
HOP-62 NSCLC = test system: HOP-62 NSCLC
HS 578T breast = test system: HS 578T breast
K-562 leukemia = test system: K-562 leukemia
LOX IMVI melanoma = test system: LOX IMVI melanoma
M14 melanoma = test system: M14 melanoma
MCF7 breast = test system: MCF7 breast
MDA-MB-435 = test system: MDA-MB-435
NCI-H522 lung = test system: NCI-H522 lung
OVCAR-3 ovarian = test system: OVCAR-3 ovarian
OVCAR-8 ovarian = test system: OVCAR-8 ovarian
RPMI-8226 leukemia = test system: RPMI-8226 leukemia
RXF 393 renal = test system: RXF 393 renal
SN12C renal = test system: SN12C renal
SNB-19 CNS = test system: SNB-19 CNS
SW-620 colon = test system: SW-620 colon
T-47D breast = test system: T-47D breast
UACC-257 melanoma = test system: UACC-257 melanoma
UO-31 renal = test system: UO-31 renal

## CN(CCNC(=O)c1cn(C)c2c1ccc1cc(Cl)c(Cl)cc12)CCNC(=O)c1cn(C)c2c1ccc1cc(Cl)c(Cl)cc12
786-0 renal
  TGI: 3.28 µM
A498 renal
  TGI: 63.2 µM
ACHN renal
  TGI: 3.73 µM
BT-549 breast
  TGI: > 75.2 µM
CAKI-1 renal
  TGI: > 100 µM
DU-145 prostate
  TGI: 3.43 µM
EKVX NSCLC
  TGI: 10.9 µM
HCT-116 colon
  TGI: 3.2 µM
HL-60(TB) leukemia
  TGI: 4.23 µM
HOP-92 NSCLC
  TGI: 12.1 µM
HT29 colon
  TGI: 3.41 µM
MALME-3M melanoma
  TGI: 24.2 µM
MDA-MB-231 breast
  TGI: 3.25 µM
MDA-N
  TGI: 3.25 µM
MOLT-4 leukemia
  TGI: 0.36 µM
NCI-H226 lung
  TGI: 96 µM
NCI-H23 lung
  TGI: 22 µM
NCI/ADR-RES ovarian
  TGI: > 100 µM
OVCAR-4 ovarian
  TGI: 5.67 µM
OVCAR-5 ovarian
  TGI: 9.98 µM
PC-3 prostate
  TGI: 3.26 µM
SF-268 CNS
  TGI: 15.5 µM
SF-295 CNS
  TGI: 6.2 µM
SF-539 CNS
  TGI: 16 µM
SK-MEL-5 melanoma
  TGI: 35.2 µM
SK-OV-3 ovarian
  TGI: 4.59 µM
TK-10 renal
  TGI: > 100 µM
U251 CNS
  TGI: 3.19 µM
UACC-62 melanoma
  TGI: 4.88 µM

## O=C1CC(c2cccc(F)c2)Nc2cc3c(cc21)OCO3 (stereo not drawn)
786-0 renal
  GI50: < 0.01 µM
  TGI: > 100 µM
A498 renal
  TGI: > 100 µM
A549 NSCLC
  GI50: < 0.01 µM
  TGI: > 100 µM
ACHN renal
  GI50: < 0.01 µM
  TGI: 22.6 µM
CAKI-1 renal
  GI50: < 0.01 µM
  TGI: > 100 µM
CCRF-CEM leukemia
  GI50: < 0.01 µM
  TGI: > 100 µM
COLO 205 colon
  GI50: < 0.01 µM
DU-145 prostate
  GI50: < 0.01 µM
  TGI: > 100 µM
EKVX NSCLC
  TGI: > 100 µM
HCC-2998 colon
  GI50: < 0.01 µM
  TGI: < 0.01 µM
HCT-116 colon
  GI50: < 0.01 µM
  TGI: > 100 µM
HCT-15 colon
  GI50: < 0.01 µM
  TGI: > 100 µM
HOP-62 NSCLC
  GI50: 2.65 µM
  TGI: > 100 µM
HOP-92 NSCLC
  GI50: 30.8 µM
  TGI: > 100 µM
HS 578T breast
  TGI: > 100 µM
HT29 colon
  TGI: 0.0667 µM
K-562 leukemia
  TGI: > 100 µM
LOX IMVI melanoma
  GI50: < 0.01 µM
  TGI: > 100 µM
M14 melanoma
  GI50: < 0.01 µM
  TGI: > 100 µM
MCF7 breast
  GI50: < 0.01 µM
  TGI: > 100 µM
MDA-MB-231 breast
  GI50: 0.04 µM
  TGI: > 100 µM
MDA-MB-435
  GI50: < 0.01 µM
  TGI: < 0.01 µM
MDA-N
  GI50: < 0.01 µM
  TGI: 0.0377 µM and < 0.01 µM
MOLT-4 leukemia
  TGI: < 0.01 µM
NCI-H226 lung
  GI50: < 0.01 µM
NCI-H522 lung
  TGI: 0.0602 µM
OVCAR-3 ovarian
  GI50: < 0.01 µM
  TGI: > 100 µM
OVCAR-4 ovarian
  GI50: > 100 µM
  TGI: > 100 µM
OVCAR-5 ovarian
  GI50: 13.4 µM
  TGI: > 100 µM
OVCAR-8 ovarian
  TGI: 1.52 µM
PC-3 prostate
  GI50: < 0.01 µM
  TGI: > 100 µM
RPMI-8226 leukemia
  TGI: 0.162 µM
RXF 393 renal
  TGI: 0.0943 µM
SF-268 CNS
  GI50: 1.53 µM
  TGI: > 100 µM
SF-295 CNS
  GI50: < 0.01 µM
  TGI: > 100 µM
SF-539 CNS
  GI50: < 0.01 µM
SK-MEL-5 melanoma
  GI50: < 0.01 µM
  TGI: < 0.01 µM
SK-OV-3 ovarian
  GI50: 0.0111 µM
  TGI: > 100 µM
SN12C renal
  GI50: 0.207 µM
  TGI: > 100 µM
SNB-19 CNS
  TGI: 3.12 µM
SW-620 colon
  GI50: < 0.01 µM
  TGI: > 100 µM
T-47D breast
  TGI: > 100 µM
TK-10 renal
  GI50: > 100 µM
  TGI: > 100 µM
U251 CNS
  GI50: < 0.01 µM
  TGI: > 100 µM
UACC-257 melanoma
  GI50: < 0.01 µM
  TGI: > 100 µM
UACC-62 melanoma
  GI50: < 0.01 µM
  TGI: < 0.01 µM
UO-31 renal
  GI50: < 0.01 µM
  TGI: > 100 µM

Source: PubChem BioAssay (NCI)
